# Source: the supplement of paper PMC10307832
# Assays:
# Assay in all cases: relative viability (nuclei count vs DMSO), 5 days (fraction); higher = more cells survive
# QS11 + Palbociclib = compound: C1CC2=C(C1)C=C(C=C2)OC3=NC(=C4C(=N3)N(C=N4)CC5=CC=C(C=C5)C6=CC=CC=C6)N[C@@H](CC7=CC=CC=C7)CO [QS11] + CC(=O)c1c(C)c2cnc(Nc3ccc(N4CCNCC4)cn3)nc2n(C2CCCC2)c1=O [Palbociclib] (partner 0.5 µM)
# Method in brief: (§1)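 Cells from lung cancer lines were seeded into 1536-well plates and, one day later, dosed by pin tool. Treatments were either a single drug or a fixed dose of an anchor drug with five library-drug doses (not always all listed) in √10 steps. After 5 days, nuclei were stained in a one-step fixation (final 0.05% Triton X-100, 1% formaldehyde, 1 ug/ml Hoechst) and counted on 4× images, and relative viability is the treated-to-vehicle nuclei ratio, as the median of duplicate plates.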
# [1] = compound: C[As](C)SC[C@H](NC(=O)CC[C@H](N)C(=O)O)C(=O)NCC(=O)O [Darinaparsin] + N=C(N)NC(=N)NCCc1ccccc1 [Phenformin] (partner 250 µM)
# Method in brief: as §1
# AZ628 + Phenformin = compound: CC1=C(C=C(C=C1)NC(=O)C2=CC(=CC=C2)C(C)(C)C#N)NC3=CC4=C(C=C3)N=CN(C4=O)C [AZ628] + N=C(N)NC(=N)NCCc1ccccc1 [Phenformin] (partner 250 µM)
# Method in brief: as §1
# AZ628 + Olaparib = compound: CC1=C(C=C(C=C1)NC(=O)C2=CC(=CC=C2)C(C)(C)C#N)NC3=CC4=C(C=C3)N=CN(C4=O)C [AZ628] + O=C(c1cc(Cc2n[nH]c(=O)c3ccccc23)ccc1F)N1CCN(C(=O)C2CC2)CC1 [Olaparib] (partner 8 µM)
# Method in brief: as §1
Cell Line,relative viability (QS11 + Palbociclib; first compound 0.08 µM),relative viability (QS11 + Palbociclib; first compound 0.253 µM),relative viability (QS11 + Palbociclib; first compound 0.8 µM),relative viability (QS11 + Palbociclib; first compound 2.53 µM),relative viability (QS11 + Palbociclib; first compound 8 µM),relative viability ([1]; first compound 0.08 µM),relative viability ([1]; first compound 0.8 µM),relative viability ([1]; first compound 2.53 µM),relative viability ([1]; first compound 8 µM),relative viability (AZ628 + Phenformin; first compound 0.08 µM),relative viability (AZ628 + Phenformin; first compound 0.253 µM),relative viability (AZ628 + Phenformin; first compound 0.8 µM),relative viability (AZ628 + Phenformin; first compound 2.53 µM),relative viability (AZ628 + Phenformin; first compound 8 µM),relative viability (AZ628 + Olaparib; first compound 0.08 µM),relative viability (AZ628 + Olaparib; first compound 0.253 µM),relative viability (AZ628 + Olaparib; first compound 0.8 µM),relative viability (AZ628 + Olaparib; first compound 2.53 µM),relative viability (AZ628 + Olaparib; first compound 8 µM)
NCI-H322M,0.516,0.461,0.468,0.517,0.593,0.886,0.795,0.663,0.795,0.783,0.737,0.725,0.769,0.663,0.805,0.755,0.819,0.774,0.783
NCI-H1755,0.461,0.476,0.399,0.402,0.427,0.671,0.598,0.545,0.632,0.614,0.626,0.585,0.589,0.46,0.917,0.869,0.86,0.832,0.845
LU99A,0.421,0.469,0.437,0.4,0.395,0.927,0.856,0.897,0.78,0.808,0.67,0.694,0.782,0.551,0.269,0.255,0.272,0.296,0.214
HCC-44,1.07,0.998,0.732,0.901,0.866,0.312,0.197,0.223,0.169,0.218,0.0997,0.136,0.115,0.203,1.01,0.999,0.977,0.972,0.974
EBC-1,–,–,–,–,–,–,–,–,–,–,–,–,–,–,0.609,0.615,0.737,0.684,0.314
NCI-H647,0.412,0.367,0.394,0.325,0.394,0.62,0.479,0.474,0.696,0.695,0.525,0.467,0.323,0.405,0.848,0.616,0.495,0.551,0.573
NCI-H1734,0.374,0.389,0.31,0.32,0.324,0.464,0.409,0.363,0.424,0.383,0.346,0.282,0.327,0.247,0.684,0.584,0.516,0.6,0.382
NCI-H1993,0.646,0.544,0.59,0.708,0.641,0.523,0.441,0.524,0.508,0.46,0.562,0.545,0.523,0.537,1.18,1.19,1.05,0.933,0.773
NCI-H23,0.492,0.387,0.354,0.347,0.329,0.935,0.839,0.86,0.842,0.841,0.806,0.619,0.716,0.595,0.316,0.312,0.331,0.227,0.216
